Measurements from patent US20250034110A1, “LPAR1 ANTAGONISTS AND USES THEREOF” (Pipeline Therapeutics, Inc., priority 2021, published 2025).

The compounds below were run against human LPAR1 (Homo sapiens, UniProt Q92633) (assay: In vitro functional assay of lysophosphatidic acid receptor 1 activity (calcium flux)). Settings: B103 cells stably expressing human LPAR1; calcium flux (Fluo-4 NW) after lysophosphatidic acid (18:1) at EC80; 100 pM to 10 μM; read-out: LPAR1 IC50.
Format: cell-based

Chain of human LPAR1 (Q92633 whole entry): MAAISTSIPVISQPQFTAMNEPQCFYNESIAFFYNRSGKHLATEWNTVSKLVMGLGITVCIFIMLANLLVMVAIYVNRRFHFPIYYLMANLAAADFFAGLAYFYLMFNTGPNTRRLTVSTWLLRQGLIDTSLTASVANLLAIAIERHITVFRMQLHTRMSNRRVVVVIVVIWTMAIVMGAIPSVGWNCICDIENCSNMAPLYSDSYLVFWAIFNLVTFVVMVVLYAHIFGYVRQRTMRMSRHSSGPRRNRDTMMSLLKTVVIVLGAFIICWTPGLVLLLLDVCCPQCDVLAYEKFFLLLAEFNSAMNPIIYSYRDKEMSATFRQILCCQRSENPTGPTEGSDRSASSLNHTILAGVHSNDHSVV

`COc1ccc(NC(=O)N(c2ccccc2C(C)C)[C@H]2C[C@](O)(C(F)(F)C(=O)O)C2)c(OC(F)F)n1` [Example 324] and `Cc1ccc(NC(=O)N(c2ccccc2C(C)C)[C@H]2CC[C@](O)(C(F)(F)C(=O)O)CC2)c(OC(F)F)n1` [Example 326] cannot be ordered by IC50: < 10 nM for the first, < 10 nM for the second.

First: CC(C)c1ccccc1N(C(=O)Nc1cc(F)c(Cl)cc1OCC(F)F)[C@H]1C[C@@H](CC(=O)O)C1 [Example 331]
Second: Cc1cc(OC(F)F)c(NC(=O)N(c2ccccc2C(C)C)[C@H]2C[C@@H](CC(=O)O)C2)cn1 [Example 305]
The IC50 of the first is lower: < 10 nM for the first, 10 to 100 nM for the second. The first is the more potent here.

First: CC(C)c1ccccc1N(C(=O)Nc1cc(F)c(F)cc1OC(F)F)[C@H]1CC[C@H](C(=O)O)CC1 [Example 298, (1r,4r)-4-(3-(2-(difluoromethoxy)-4,5-difluorophenyl)-1-(2-isopropylphenyl)ureido)cyclohexane-1-carboxylic acid]
Second: COc1cc(F)c(Cl)cc1NC(=O)N(c1ccccc1C(C)C)[C@H]1CC[C@H](C(=O)O)CC1 [Example 300, (1r,4r)-4-(3-(5-chloro-4-fluoro-2-methoxyphenyl)-1-(2-isopropylphenyl)ureido)cyclohexane-1-carboxylic acid]
The IC50 of the first is lower: < 10 nM for the first, 100 to 1000 nM for the second. The first is the more potent here.

Compared with `Cc1ccc(NC(=O)N(CC23CC(C(=O)O)(C2)C3)c2ccccc2C(C)C)c(OC(F)F)n1` [Example 173], `Cc1ccc(NC(=O)N(C[C@@H]2C[C@H]2C(=O)O)c2ccccc2C(C)C)c(OC(F)F)n1` (racemic) [Example 228] is higher in IC50: 10 to 100 nM for the first, 100 to 1000 nM for the second.

`CC(C)c1ccccc1N(C(=O)Nc1ccc(Cl)c(F)c1)[C@H]1CC[C@H](C(=O)O)CC1` [Example 158, trans-4-(3-(4-chloro-3-fluorophenyl)-1-(2-isopropylphenyl)ureido)cyclohexane-1-carboxylic acid] and `COc1ccc(NC(=O)N(c2ccccc2C(C)C)[C@H]2CC[C@H](C(=O)O)CC2)c(OC)n1` [Example 288, (1r,4r)-4-(3-(2,6-dimethoxypyridin-3-yl)-1-(2-isopropylphenyl)ureido)cyclohexane-1-carboxylic acid] fall in the same range of IC50: 10 to 100 nM for the first, 10 to 100 nM for the second.

`Cc1ccc(NC(=O)N(c2ccccc2C(C)C)[C@H]2C[C@H](CC#N)C2)c(OC(F)F)n1` [Example 27, 1-((1r,3r)-3-(cyanomethyl)cyclobutyl)-3-(2-(difluoromethoxy)-6-methylpyridin-3-yl)-1-(2-isopropylphenyl)urea] and `Cc1ccc(NC(=O)N(c2ccccc2C(C)C)[C@H]2C[C@@H](O)C2)c(OC(F)F)n1` [Example 182] fall in the same range of IC50: 100 to 1000 nM for the first, 100 to 1000 nM for the second.

First: Cc1ccc(NC(=O)N(c2ccccc2C(C)C)C2CC3(C2)CS(=O)(=O)C3)c(OC(F)F)n1 [Example 21, 3-(2-(difluoromethoxy)-6-methylpyridin-3-yl)-1-(2,2-dioxido-2-thiaspiro[3.3]heptan-6-yl)-1-(2-isopropylphenyl)urea]
Second: Cc1ccc(NC(=O)N(c2ccccc2C(C)C)C2CCS(=O)(=O)CC2)c(OC(F)F)n1 [Example 20, 3-(2-(difluoromethoxy)-6-methylpyridin-3-yl)-1-(1,1-dioxidotetrahydro-2H-thiopyran-4-yl)-1-(2-isopropylphenyl)urea]
The IC50 of the first is higher: 100 to 1000 nM for the first, 10 to 100 nM for the second.

`Cc1ccc(NC(=O)N(c2ccccc2C(C)C)C2CN(C(=O)CC#N)C2)c(OC(F)F)n1` [Example 81, 1-(1-(2-cyanoacetyl)azetidin-3-yl)-3-(2-(difluoromethoxy)-6-methylpyridin-3-yl)-1-(2-isopropylphenyl)urea] and `Cc1ccc(NC(=O)N(c2ccccc2C(C)C)C2CN(S(N)(=O)=O)C2)c(OC(F)F)n1` [Example 127, 3-(3-(2-(difluoromethoxy)-6-methylpyridin-3-yl)-1-(2-isopropylphenyl)ureido)azetidine-1-sulfonamide] fall in the same range of IC50: 10 to 100 nM for the first, 10 to 100 nM for the second.

Compared with `COc1ccc(NC(=O)N(c2ccccc2C(C)C)C2CCCN(C)C2=O)c(OC(F)F)n1` (centres unmarked) [Example 45, 3-(2-(difluoromethoxy)-6-methoxypyridin-3-yl)-1-(2-isopropylphenyl)-1-(1-methyl-2-oxopiperidin-3-yl)urea], `COc1ccc(NC(=O)N(c2ccccc2C(C)C)[C@@H]2CCC[C@H](C(=O)O)C2)c(OC(F)F)n1` [Example 286] is lower in IC50: 100 to 1000 nM for the first, 10 to 100 nM for the second. The second is the more potent here.

First: Cc1ccc(NC(=O)N(c2ccccc2C(C)C)[C@H]2C[C@@H](C(=O)O)C2)c(OC(F)F)n1 [Example 162, cis-3-(3-(2-(difluoromethoxy)-6-methylpyridin-3-yl)-1-(2-isopropylphenyl)ureido)cyclobutane-1-carboxylic acid]
Second: Cc1ccc(NC(=O)N(c2ccccc2C(C)C)[C@H]2CC[C@H](C(=O)O)C2)c(OC(F)F)n1 [Example 304]
The IC50 of the first is higher: 100 to 1000 nM for the first, < 10 nM for the second.

First: Cc1ccc(NC(=O)N(c2ccccc2C(C)C)C2CC(=O)N(C)C2)c(OC(F)F)n1 (centres unmarked) [Example 7, 3-(2-(difluoromethoxy)-6-methylpyridin-3-yl)-1-(2-isopropylphenyl)-1-(1-methyl-5-oxopyrrolidin-3-yl)urea]
Second: Cc1ccc(NC(=O)N(c2ccccc2C(C)C)C2CC(CC(=O)O)C2)c(OC(F)F)n1 (centres unmarked) [Example 160, 2-(3-(3-(2-(difluoromethoxy)-6-methylpyridin-3-yl)-1-(2-isopropylphenyl)ureido)cyclobutyl)acetic acid]
The IC50 of the first is higher: 100 to 1000 nM for the first, < 10 nM for the second. The second is the more potent here.

`COc1ccc(NC(=O)N(c2ccccc2C(C)C)[C@@H]2CCN(C3COC3)C2)c(OC(F)F)n1` [Example 37, (R)-3-(2-(difluoromethoxy)-6-methoxypyridin-3-yl)-1-(2-isopropylphenyl)-1-(1-(oxetan-3-yl)pyrrolidin-3-yl)urea] and `COc1ccc(NC(=O)N(c2ccccc2C(C)C)[C@H]2CC[C@@H](C(=O)O)CC2)c(OC(F)F)n1` [Example 145] fall in the same range of IC50: 100 to 1000 nM for the first, 100 to 1000 nM for the second.

First: Cc1ccc(NC(=O)N(c2ccccc2C(C)C)[C@H]2CC[C@H](O)CC2)c(OC(F)F)n1 [Example 239, 3-(2-(difluoromethoxy)-6-methylpyridin-3-yl)-1-((1r,4r)-4-hydroxycyclohexyl)-1-(2-isopropylphenyl)urea]
Second: Cc1ccc(NC(=O)N(c2ccccc2C(C)C)[C@H]2CC[C@@H](S(C)(=O)=O)CC2)c(OC(F)F)n1 [Example 255, 3-(2-(difluoromethoxy)-6-methylpyridin-3-yl)-1-(2-isopropylphenyl)-1-((1s,4s)-4-(methylsulfonyl)cyclohexyl)urea]
The IC50 of the first is higher: 100 to 1000 nM for the first, 10 to 100 nM for the second. The second is the more potent here.

`Cc1ccc(NC(=O)N(C[C@H]2CC[C@@H](C(=O)O)CC2)c2ccccc2C(C)C)c(OC(F)F)n1` [Example 172] and `Cc1ccc(NC(=O)N(c2ccccc2C(C)C)[C@H]2CC[C@H](CC(C)(C)O)CC2)c(OC(F)F)n1` [Example 247, 3-(2-(difluoromethoxy)-6-methylpyridin-3-yl)-1-((1r,4r)-4-(2-hydroxy-2-methylpropyl)cyclohexyl)-1-(2-isopropylphenyl)urea] fall in the same range of IC50: 10 to 100 nM for the first, 10 to 100 nM for the second.

Compared with `COC(=O)C1CC(N(C(=O)Nc2ncc(Br)cc2OC(F)F)c2ccccc2C(C)C)C1` (centres unmarked) [Example 177], `CC(=O)N1CC2(CC(N(C(=O)Nc3ncc(Cl)cc3OC(F)F)c3ccccc3C(C)C)C2)C1` [Example 124] is higher in IC50: 10 to 100 nM for the first, 100 to 1000 nM for the second. The first is the more potent here.

`Cc1ccc(NC(=O)N(c2ccccc2C(C)C)[C@H]2CC[C@H](c3cccnc3)CC2)c(OC(F)F)n1` [Example 261, 3-(2-(difluoromethoxy)-6-methylpyridin-3-yl)-1-(2-isopropylphenyl)-1-((1r,4r)-4-(pyridin-3-yl)cyclohexyl)urea] showed an IC50 of 100 to 1000 nM.

Same assay, conditions: LPAR1 IC50

Compared with `COc1ccc(NC(=O)N(c2ccccc2C(C)C)[C@@H]2C[C@H]3CC[C@@H](C2)N3C(C)=O)c(OC(F)F)n1` [Example 55, 1-((1R,3r,5S)-8-acetyl-8-azabicyclo[3.2.1]octan-3-yl)-3-(2-(difluoromethoxy)-6-methoxypyridin-3-yl)-1-(2-isopropylphenyl)urea], `COc1ccc(NC(=O)N(c2ccccc2C(C)C)C2CCN(C(C)=O)CC2)c(OC(F)F)n1` [Example 86, 1-(1-acetylpiperidin-4-yl)-3-(2-(difluoromethoxy)-6-methoxypyridin-3-yl)-1-(2-isopropylphenyl)urea] is lower in IC50: 100 to 1000 nM for the first, 10 to 100 nM for the second.

First: CC(=O)N1C[C@@H]2[C@H](C1)[C@H]2N(C(=O)Nc1ccc(C)nc1OC(F)F)c1ccccc1C(C)C [Example 69, 1-((1R,5S,6s)-3-acetyl-3-azabicyclo[3.1.0]hexan-6-yl)-3-(2-(difluoromethoxy)-6-methylpyridin-3-yl)-1-(2-isopropylphenyl)urea]
Second: COc1ccc(NC(=O)N(c2ccccc2C(C)C)[C@@H]2CCN(C(C)=O)C[C@@H]2F)c(OC(F)F)n1 [Example 49, 1-((3S,4R)-1-acetyl-3-fluoropiperidin-4-yl)-3-(2-(difluoromethoxy)-6-methoxypyridin-3-yl)-1-(2-isopropylphenyl)urea]
The IC50 of the first is higher: 100 to 1000 nM for the first, 10 to 100 nM for the second.

Compared with `CNC(=O)N1CCC(N(C(=O)Nc2ccc(OC)nc2OC(F)F)c2ccccc2C(C)C)CC1` [Example 64, 4-(3-(2-(difluoromethoxy)-6-methoxypyridin-3-yl)-1-(2-isopropylphenyl)ureido)-N-methylpiperidine-1-carboxamide], `CC(=O)N1CCC(N(C(=O)Nc2ccc(C)[n+]([O-])c2OC(F)F)c2ccccc2C(C)C)CC1` [Example 197, 3-(3-(1-acetylpiperidin-4-yl)-3-(2-isopropylphenyl)ureido)-2-(difluoromethoxy)-6-methylpyridine 1-oxide] is higher in IC50: 10 to 100 nM for the first, > 1000 nM for the second.

Compared with `CC(=O)N1CCC(N(C(=O)Nc2ncc(Br)cc2C=O)c2ccccc2C(C)C)CC1` [Example 140], `CC(=O)N1CCC(N(C(=O)Nc2ccc(C)cn2)c2ccccc2C(C)C)CC1` [Example 143, 1-(1-acetylpiperidin-4-yl)-1-(2-isopropylphenyl)-3-(5-methylpyridin-2-yl)urea] is higher in IC50: 100 to 1000 nM for the first, > 1000 nM for the second. The first is the more potent here.

First: COc1ccc(NC(=O)N(c2ccccc2C(C)C)C23CCN(C(C)=O)CC2C3)c(OC(F)F)n1 (centres unmarked) [Example 61, 1-(3-acetyl-3-azabicyclo[4.1.0]heptan-6-yl)-3-(2-(difluoromethoxy)-6-methoxypyridin-3-yl)-1-(2-isopropylphenyl)urea]
Second: CC(=O)N1CCC(N(C(=O)Nc2ncc(Br)cc2OC(F)F)c2ncccc2C(C)C)CC1 [Example 142]
The IC50 of the first is lower: 10 to 100 nM for the first, > 1000 nM for the second. The first is the more potent here.
